Experimental data taken from US20190337910A1, “ALLOSTERIC MODULATORS OF NICOTINIC ACETYLCHOLINE RECEPTORS” (MERCK SHARP & DOHME CORP., priority 2016, published 2019).
Like-named read-outs stand apart in the source and are kept apart here.

Target: T1, human α7 nAChR stably expressed in a HEK cell line (with human RIC-3) (Homo sapiens, UniProt P36544)
T1 construct: PrecisION hnAChR α7/RIC-3 (product name; no catalogue number given)
Assay: Automated patch-clamp electrophysiology functional assay (Assay A), IonFlux HT, whole-cell population patch
Assay type: cell-based
Method: The α7 nAChR positive allosteric modulator (PAM) activity of the present compounds may be tested using assays known in the art. The α7 nAChR PAMs described herein have activities in an automated patch-clamp electrophysiology functional assay as described in the examples. The assay was performed using the IonFlux HT in a whole-cell, population patch configuration. See Golden et al. Assay Drug Dev. Technol. (2011) 9:608-619. The compounds were assessed for their ability to modulate the function of the human α7 nAChR stably expressed in a HEK cell line both in the presence, and in the absence of the natural α7 agonist acetylcholine. By performing a series of such measurements at different concentrations, the effective concentration of the α7 nAChR PAMs (EC50) was determined. See Spencer et al. Assay Drug Dev. Technol. (2012) 10:313-324.
Direct activation of α7 (agonism), and potentiation of acetylcholine-evoked α7 currents was determined as follows:
Automated Patch-Clamp Electrophysiology Functional Assay (Assay A)
Automated patch-clamp electrophysiology was performed using the IonFlux HT (Fluxion Biosciences Inc., San Francisco, Calif.) in the whole-cell, population patch configuration. Test compounds were assessed for their ability to modulate the function of the α7 nicotinic acetylcholine receptor both in the presence, and in the absence of the natural α7 agonist acetylcholine. A HEK cell line stably expressing both human RIC-3 and human α7 (PrecisION hnAChR α7/RIC-3, Eurofins Pharma, St. Charles, Mo.) was cultured in 175 cm^2 triple-layer tissue culture flasks to no more than 90% confluency in DMEM/F-12 growth media supplemented with 10% heat-inactivated fetal bovine serum, 1% non-essential amino acids, 0.625 μg/mL Puromycin, and 400 μg/mL Geneticin. Immediately prior to assay, cells were detached by first aspirating growth media, rinsing with Dulbecco's phosphate buffered saline, and then adding 10 mL of Accutase (Innovative Cell Technologies, San Diego, Calif.) to the flask and then incubating at 37° C. for 5 minutes. Detached cells were then recovered by the addition of 40 mL of CHO-serum-free media supplemented with 25 mM HEPES, and rocked gently in a 50 mL conical tube for 20 minutes prior to patch-clamp assay. After recovery, cells were pelleted by centrifugation at 1,000 RPM for 1 minute in a compact bench top centrifuge; recovery media was aspirated and cells were resuspended in external recording solution (150 mM NaCl, 5 mM KCl, 2 mM CaCl2, 1 mM MgCl2, 10 mM HEPES, 12 mM dextrose) to a density of 5.0×10^6 cells/mL. The cell suspension was added to the cell inlet wells on an IonFlux HT population patch plate which had previously been rinsed and primed with deionized H2O. Test compounds were serially diluted in DMSO and then resuspended to the final test concentration in external recording solution, with, or without 40 μM acetylcholine added to the external recording solution; test compounds were then transferred to the IonFlux HT population patch plate. Internal recording solution (110 mM TrisPO4, 28 mM TrisBase, 0.1 mM CaCl2, 2 mM MgCl2, 11 mM EGTA, 4 mM MgATP) was added to the internal recording solution inlet wells on the IonFlux HT patch plate previously loaded with cells and test compounds, and the plate loaded into the IonFlux HT instrument. A protocol was executed on the IonFlux HT to trap the cells, break into the cells, and establish the whole-cell recording configuration; cells were voltage-clamped at a holding potential of −60 mV for the duration of the experiment, all experiments were conducted at room temperature, and the IonFlux HT injection pressure was 8 psi for solution applications. Upon establishing the whole-cell configuration, external recording solution was perfused into the recording chambers for 120 seconds and then 40 μM acetylcholine was applied for 1 second and immediately washed off with external recording solution for 60 seconds. […]

[1] = HEK cell line stably expressing human α7 and human RIC-3, 40 μM acetylcholine, holding potential −60 mV, room temperature, read-out: α7 nAChR EC50
[2] = automated patch-clamp electrophysiology functional assay (Assay A), potency class by EC50, read-out: α7 nAChR Potency

T1 sequence (P36544 23-502): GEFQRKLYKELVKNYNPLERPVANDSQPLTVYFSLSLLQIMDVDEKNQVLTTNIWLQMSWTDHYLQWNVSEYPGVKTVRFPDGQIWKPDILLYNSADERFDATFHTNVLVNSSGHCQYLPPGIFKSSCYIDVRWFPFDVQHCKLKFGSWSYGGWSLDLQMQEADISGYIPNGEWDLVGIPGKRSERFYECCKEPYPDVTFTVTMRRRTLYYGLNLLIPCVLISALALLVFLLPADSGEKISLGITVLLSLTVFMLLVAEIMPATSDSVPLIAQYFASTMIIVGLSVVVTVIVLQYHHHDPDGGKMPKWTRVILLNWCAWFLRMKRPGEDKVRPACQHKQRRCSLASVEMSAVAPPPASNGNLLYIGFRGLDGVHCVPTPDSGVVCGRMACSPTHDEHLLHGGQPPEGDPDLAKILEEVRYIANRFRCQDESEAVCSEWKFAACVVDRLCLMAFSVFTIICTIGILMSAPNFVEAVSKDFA

Row | Compound | EC50 [1] [µM] | EC50 [2] [µM]
1 | 4-{(1S,3S)-3-[2-(3-Fluorophenyl)-1-methyl-1H-imidazol-4-yl]-2,2-dimethylcycloproyl}benzenesulfonamide [Example 35] | 4.4 | 0.5 to 5
2 | CC1(c2nc(-c3ccc(F)cc3F)no2)CC1c1ccc(S(N)(=O)=O)cc1 (centres unmarked) [Example E3] | 6.9 | 5 to 50
3 | CC1(C)[C@H](c2ccc(S(N)(=O)=O)cc2)[C@H]1c1nnc(C2CCCCC2)s1 [Example F7] |  | 0.5 to 5
4 | CC1(C)[C@@H](c2ccc(S(N)(=O)=O)cc2)[C@@H]1c1noc(-c2ccncc2C(F)(F)F)n1 [Example I20] | 0.45 | 
5 | CC1(C)[C@H](c2ccc(S(N)(=O)=O)cc2)[C@H]1c1nc(C2CC2)co1 [Example J5] |  | 0.5 to 5
6 | CC(C)c1csc([C@H]2[C@H](c3ccc(S(N)(=O)=O)cc3)C2(C)C)n1 [Example K11] | 1.1 | 0.5 to 5
7 | NS(=O)(=O)c1ccc([C@@H]2C[C@H]2c2ncc(C3CCCC3)s2)cc1 [Example K15] |  | 0.1 to 0.5

Continued, values first:

Row | EC50 [1] [µM] | EC50 [2] [µM] | Compound
8 |  | 0.5 to 5 | NS(=O)(=O)c1ccc(C2C(c3cnc(-c4ccccc4)o3)C2(F)F)cc1 (racemic) [Example M1]
9 | 0.14 | 0.1 to 0.5 | NS(=O)(=O)c1ccc(C2C(c3nc(-c4ccccc4)no3)C2(Cl)Cl)cc1 (racemic) [Example M9]
10 |  | 5 to 50 | Cc1cc(C2C(c3nc(-c4ccccc4)no3)C2(C)C)ccc1S(N)(=O)=O (single isomer, unassigned) [Example M8]
11 | 4.3 | 0.5 to 5 | Cc1cc(S(N)(=O)=O)ccc1[C@H]1C(c2nc(-c3ccccc3)no2)C1(C)C (single isomer, unassigned; enantiomer a) [Example 38, 4-[trans-2,2-Dimethyl-3-(3-phenyl-1,2,4-oxadiazol-5-yl)cyclopropyl]-3-methylbenzenesulfonamide, enantiomer A]
12 | 1.7 | 0.5 to 5 | CC1(C)[C@H](c2ccc(S(N)(=O)=O)cc2)[C@H]1c1nc(-c2ccc(F)cc2C(F)(F)F)no1 [Example A2]
13 |  | 0.1 to 0.5 | Cc1cccc(F)c1-c1noc([C@@H]2C[C@H]2c2ccc(S(N)(=O)=O)cc2)n1 [Example C11]
14 | 1.7 | 0.5 to 5 | CC1(c2ccc(S(N)(=O)=O)cc2)CC1c1nc(-c2ccc(F)cc2F)no1 (centres unmarked) [Example E4]
15 |  | ≤ 0.1 | CC(Oc1cccc(Cl)c1)c1nc(C2C(c3ccc(S(N)(=O)=O)cc3)C2(C)C)no1 (centres unmarked) [Example I2]
16 | 1.6 | 0.5 to 5 | CC1(C)[C@@H](c2ccc(S(N)(=O)=O)cc2)[C@@H]1c1nc(-c2cc(F)ccc2F)co1 [Example K2]
17 | 3.9 | 0.5 to 5 | CC1(C)[C@@H](c2ccc(S(N)(=O)=O)cc2)[C@@H]1c1nc(-c2cccc(F)c2)cs1 [Example K10]
